Laboratory results taken from patent US5840740A, “Aminosterol compounds and a method of treating infection using the aminosterol compounds” (priority 1995, dated 1998).
Entries after “also recorded” stand apart in the source; their conditions may differ.

Tests used:
[1] = Fasting blood glucose in mice; assay type: in vivo, mouse (male CD-1); conditions: 2 x 10 mg/kg i.v. (total 20 mg/kg), 30 min after 2d dose; in H2O (1437, 1256) or D5W (1436)
Protocol: To study the effect of steroid administrator or the NHE responsible for secretion of insulin, several of the aminosterols from shark liver were administered to fasting mice. Male CD-1 mice were assigned to one of four treatment groups. Whole blood glucose was tested using glucometer (Lifescan Glucometer II and One Touch test strips). Statistical analysis was via one-way analysis of variance (ANOVA) followed by subsequent Bonferonni's t-test.

[2] = tested on: human NHE1; assay: pH recovery in PS120 fibroblasts transfected with human NHE1; assay type: cell-based; conditions: 5 μg/ml; acid-preloaded
Protocol: (§1) PS120 fibroblasts transfected with rabbit or human NHE1 were grown as described above.

[3] = tested on: chick embryo vitelline capillaries; assay: Chick embryo vitelline capillary regression assay; assay type: in vivo; parameters: key to vascular reactivity (capillary regression): +: Vascular reactivity; 0: No vascular reactivity; +/-: Equivocal reactivity; conditions: for vascular reactivity (capillary regression): 60 min
Summary of the method: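 Each compound was applied onto 3-day chick embryos in 0.1 ml 15% Ficol 400 in PBS. Regression of vitelline capillaries was scored visually after 60 minutes.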

[4] = tested on: chorioallantoic membrane; assay: Chorioallantoic membrane (CAM) model; assay type: in vivo, chick; conditions: for Percentage positive, Assay 1 / Percentage positive, Assay 2: 3-day embryo, some vascular irritation noted
Excerpt: The growing capillaries within the chorioallantoic membrane model (CAM model) have been used as a system in which to evaluate the effect of agents on their potential to inhibit new vessel growth. Neovascularization occurs most aggressively over the first week of embryonic development. Thereafter capillary growth is characterized by principally "elongation" rather than "de novo" formation.
In the standard assay, agents are applied locally to a region of the embryo over which neovascularization will occur. Agents are assessed by their ability to inhibit this process, as evaluated by visual examination about 7 days after application. […] The assay utilized is described in detail in Auerbach et al., Pharm. Ther. 51, 1991, 1-11.

[5] = tested on: rabbit NHE1; assay: pH recovery in PS120 fibroblasts transfected with rabbit NHE1; assay type: cell-based; conditions: 5 μg/ml; acid-preloaded
Protocol: as §1

[6] = tested on: human foreskin fibroblasts; assay: Growth inhibition of fibroblasts in vitro; assay type: cell-based; conditions: 10 μg/ml; absorbance at 600 nm
[7] = tested on: human coronary artery smooth muscle; assay: Proliferation of human coronary artery smooth muscle in vitro; assay type: cell-based; conditions: in words (1436: about 11 μg/ml)
Excerpt: Aminosterols of the invention may also have utility in inhibiting the growth factor mediated proliferation of smooth muscle within the artery. Following coronary angioplasty, reocclusion commonly occurs, secondary to reparative proliferation of the vascular smooth muscle within the wall of the surgically manipulated blood vessel. This process generally takes place over the course of 7-10 days. To evaluate whether an agent could prevent the growth factor mediated proliferation of smooth muscle within the artery, compound 1436 was evaluated in vitro for its effect on the proliferation of human coronary artery smooth muscle. Results for compound 1436 are shown in FIG. 13, and those for squalamine are shown in FIG. 14, with FIG. 15 being a composite logarithmic plot.

[8] = tested on: Xenopus tadpole; conditions: stage 59-60, 10 μg/ml
[9] = tested on: human epithelial cell line MCF 10A; assay: Growth inhibition of epithelial cells in vitro; assay type: cell-based; conditions: 10 μg/ml; absorbance at 600 nm
[10] = tested on: human umbilical venous endothelial cells; assay: LPS-induced neutrophil adherence to endothelial cells; conditions: squalamine 10, 1.0 or 0.1 μg; three subjects
Protocol: To determine if squalamine inhibited this particular endothelial cell function, standard adhesion assays were performed as outlined in Gamble et al., J. Imm. […] In these experiments, approximately 2×10^5 human umbilical venous cells (passage 2-6) were plated per well. The cells were grown in serum-free media overnight. For induction, either TNF-α (40 ng/ml) was added to endothelial cells for 6 hours prior to adding neutrophils or LPS (100 ng/ml) was added for 4-6 hours. […] After activation of the endothelial cells, approximately 50×10^6 neutrophils were added per well. The plates were gently rocked for 30 minutes at room temperature, followed by removal of the media and washing in serum-free media three times and then photographing of each well. Experiments to test the effects of squalamine were performed by adding squalamine at 10 μg, 1.0 μg, or 0.1 μg at the time of adding LPS or TNF-α. A second repeat dose of squalamine was added at the time of adding neutrophils. A monoclonal Ab to ICAM-1 was a positive control.

[11] = tested on: bovine pulmonary endothelial cells; assay: Growth inhibition of endothelial cells in vitro; assay type: cell-based; conditions: 1 μg/ml; absorbance at 600 nm
[12] = tested on: bacteria, fungi and protozoa; conditions: background; cited from earlier work
[13] = tested on: B16; assay: Cytostatic activity against B16 in culture; assay type: cell-based, murine
[14] = tested on: PHA-stimulated human lymphocytes; assay: Inhibition of mitogen (PHA)-stimulated growth of human T-cells; assay type: cell-based; conditions: in words; 10 μg/ml
Excerpt: Results are tabulated below.

[15] = tested on: melanoma 1205Lu; assay: Human melanoma growth in immunocompromised RAG-1 mice; assay type: in vivo, human tumor in RAG-1 mice; conditions: 10, 20, 40 mg/kg/d (FIG. 5)
Excerpt: As apparent from FIG. 5, melanoma 1205Lu develops aggressively in RAG-1 mice after implantation.

[16] = target: rabbit NHE3 (Oryctolagus cuniculus, UniProt P26432); conditions: 5 μg/ml squalamine; cells not acid-preloaded
Sequence of rabbit NHE3 (P26432 30-832): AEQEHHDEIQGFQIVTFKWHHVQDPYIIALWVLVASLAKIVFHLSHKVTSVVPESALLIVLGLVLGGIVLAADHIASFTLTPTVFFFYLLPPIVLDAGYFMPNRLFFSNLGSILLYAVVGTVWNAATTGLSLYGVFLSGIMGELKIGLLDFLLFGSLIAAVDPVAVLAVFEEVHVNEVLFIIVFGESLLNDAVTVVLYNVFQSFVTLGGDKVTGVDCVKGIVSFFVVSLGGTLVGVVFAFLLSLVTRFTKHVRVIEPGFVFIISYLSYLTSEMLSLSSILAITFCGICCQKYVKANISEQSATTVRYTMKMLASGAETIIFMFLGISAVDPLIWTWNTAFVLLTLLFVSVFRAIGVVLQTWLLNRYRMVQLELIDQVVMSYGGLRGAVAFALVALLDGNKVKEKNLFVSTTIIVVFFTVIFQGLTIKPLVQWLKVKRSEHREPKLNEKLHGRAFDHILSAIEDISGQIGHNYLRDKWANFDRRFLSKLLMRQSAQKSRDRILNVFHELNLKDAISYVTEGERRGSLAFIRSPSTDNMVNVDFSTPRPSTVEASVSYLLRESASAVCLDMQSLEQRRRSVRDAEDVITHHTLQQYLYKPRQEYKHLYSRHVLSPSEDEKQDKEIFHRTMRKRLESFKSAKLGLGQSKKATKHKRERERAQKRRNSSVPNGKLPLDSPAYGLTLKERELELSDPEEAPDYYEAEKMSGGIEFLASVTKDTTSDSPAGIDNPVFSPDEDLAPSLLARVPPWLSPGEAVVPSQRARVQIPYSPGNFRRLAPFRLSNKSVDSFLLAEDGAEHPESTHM
Protocol: For cells not acid-preloaded, the actual internal pH value was monitored as a function of time following addition of squalamine, with the results depicted in FIG. 1B.
PS120 fibroblasts transfected with rabbit NHE3 were grown and acid preloaded by exposure to 40 mM NH4 C1 as described above in conjunction with FIGS. 1A and 1B. Internal cellular pH changes expressed as the rate of pH recovery as a function of restored extracellular sodium ion concentration following exposure to 10 μg/ml of the compound were assayed with the fluorescent dye BCECF-AM as described above.

[17] = tested on: B16 melanoma; assay: B16 melanoma growth in C57B mice; assay type: in vivo, mouse
Protocol: The growth of B16 melanoma in C57B mice is dependent upon neovascularization.
Using the growth of B16 melanoma cells in C57B mice, a recognized model for the evaluation of inhibitors of angiogenesis on the growth of cancers, the effects of subcutaneous, intraperitoneal and oral administration of squalamine were evaluated.
In this model, there was observed little evidence of metastasis with or without treatment with chemotherapeutic agents.
Based on the idea that tumor growth involves both the clonal expansion of a malignant cell along with the development of a supporting vascular supply, a combination of compound 1436 with squalamine was tested to determine whether it would achieve a synergistic effect on solid tumor growth. This concept was evaluated in the B16 melanoma model.
Animals were implanted with B16 melanoma followed by treatment with compound 1436 or 1256 administered in a combined schedule or separately. […] Thus, a combination of these two compounds achieves a therapeutic benefit in tumors dependent on neovascularization that may prevent metastatic spread.

[18] = tested on: human microvascular cells; assay: Inhibition of endothelial cell cord formation in vitro; assay type: cell-based; conditions: at cord formation-inhibiting concentrations
Excerpt: Endothelial cells have the capacity in vitro to form tubular aggregates resembling capillaries in various early stages of formation. This conversion occurs under relatively specific conditions, in which essential growth factors along with an effective substratum are provided. It has been shown that both the interaction of growth factors with the endothelial cell and its attachment to a substratum activate the NHE. The activation of this exchanger is believed to be required for subsequent morphologic transformation of the endothelial cell into a multicellular tubular structure.
To assess the effect of compounds on the cord-like structures formed by human microvascular cells when plated in the presence of VEFG (Vascular Endothelial Growth Factor) and basic fibroblast growth factor on a collagen matrix, a standard cord formation assay was used.

SMILES: CC(C)[C@@H](CC[C@@H](C)[C@H]1CC[C@H]2[C@@H]3[C@H](O)C[C@H]4C[C@@H](NCCCNCCCCN)CC[C@]4(C)[C@H]3CC[C@]12C)OS(=O)(=O)O [Squalamine, squalamine]
- Fasting Blood Glucose Mean ± SEM [1]: 65 ± 7.3 mg/dL
- inhibition of human NHE1 [2]: no inhibitory activity; also recorded: lack of inhibition of human NHE1
- vascular reactivity (capillary regression) ([3]; 0.001 μg applied): 0
- vascular reactivity (capillary regression) ([3]; 0.01 μg applied): +
- vascular reactivity (capillary regression) ([3]; 0.1 μg applied): +
- vascular reactivity (capillary regression) ([3]; 1 μg applied): +
- vascular reactivity (capillary regression) ([3]; 10 μg applied): +
- effect on chick embryo vessels / blood ([3]; in words): disrupt vitelline capillaries in 3- to 5-day chick embryos
- effect on chick embryo vessels / blood ([3]; in words, listed as squalamine): especially active
- hemorrhage / hemolysis / heartbeat in chick embryo ([3]; in words, listed as squalamine): No hemorrhage was seen; also recorded: absence of hemolysis; also recorded: The embryonic heart continued to beat vigorously
- Percentage positive, Assay 1 ([4]; 20 μg applied): 52 Percentage
- Percentage positive, Assay 2 ([4]; 20 μg applied): 58 Percentage
- Percentage positive, Assay 1 ([4]; 40 μg applied): 50 Percentage
- Percentage positive, Assay 2 ([4]; 40 μg applied): 13 Percentage
- Percentage positive ([4]; 13-day embryo, 5.0 μg applied, positive/total): 0/26
- inhibition of rabbit NHE1 [5]: no inhibitory activity; also recorded: lack of inhibition of rabbit sodium/proton exchanger isoform 1 (NHE1)
- growth inhibition [6]: no effect
- growth suppression / viability of smooth muscle cells [7]: suppress in vitro the growth of human coronary artery smooth muscle
- time to death [8]: ≤ 2 h
- pharmacological response in tadpole ([8]; in words, listed as Compound 1256 (Squalamine)): Vascular occlusion in fine capillaries of tail. No effect on vascular flow through hands or feet.
- growth inhibition [9]: no effect
- inhibition of neutrophil adherence [10]: no inhibition
- growth inhibition [11]: inhibited the growth
- antibiotic spectrum [12]: broad-spectrum antibiotic, killing bacteria, fungi and protozoa
- cytostatic activity against B16 [13]: minimal cytostatic activity against B16 in culture, except at very high concentrations
- inhibition of blast transformation [14]: Some effect
- suppression of human melanoma growth [15]: suppress the growth of melanoma 1205Lu in RAG-1 mice in a dose-dependent fashion; also recorded: clear suppression of tumor growth in a dose-dependent fashion
- suppression of human melanoma growth ([15]; listed as squalamine): After cessation of treatment, tumor growth continued at a rate similar to untreated controls
- resting internal pH [16]: the resting pH of these cells was also inhibited
- body weight and hematologic parameters ([17]; s.c., i.p. or oral squalamine): no significant depression
- effect on B16 tumor volume, single agent and combination ([17]; squalamine 5 mg/kg/day, compound 1436 10 mg/kg/every 3 days): no significant impact on tumor volume
- suppression of B16 melanoma tumor growth ([17]; squalamine subcutaneous, intraperitoneal, oral): a dose-dependent suppression of tumor volume; also recorded: suppression of the growth of murine melanoma
- effect on cell viability or proliferation [18]: does not appear to profoundly affect cell viability or proliferation
